Columns and labels:
[1] = Observation of crystal formation in the patch; format: physicochemical
Method: (§1) 10 wt % melatonin was placed in a 70 mL vial and dissolved in methanol, and then 90 wt % adhesive was added thereto, followed by mixing in a roll mixer for 2 hours. Next, the mixture was allowed to stand for 30 minutes to remove bubbles, after which a silicone-treated polyethylene terephthalate release film was placed on a coating machine, and the mixed adhesive was dried, and then coated onto the release film to 70 μm. Thereafter, the resultant was dried in an oven at 80° C. for 3 minutes, and then a supporting layer film was laminated thereon and compressed using a roller press. The resultant was cut of a patch cutter, thereby manufacturing a patch having an area of 10 cm^2. Next, the physical properties of the patch and crystal formation were observed, and a percutaneous absorption test was performed.
as §1, with “Melatonin and a solubilizing agent were placed” for “10 wt % melatonin was placed”, “then an” for “then 90 wt %”, “coated on” for “coated onto”, “a support” for “a supporting”, “cut by using” for “cut of”, “were observed.” for “were observed, and a percutaneous absorption test was performed.”
A crystallization inhibitor was placed and dissolved in a 70 mL vial, and then a solubilizing agent, an antioxidant and melatonin were added and dissolved, after which an adhesive was added thereto, followed by mixing in a roll mixer for 2 hours. Next, the mixture was allowed to stand for 30 minutes to remove bubbles, after which a silicone-treated polyethylene terephthalate release film was placed on a coating machine, and the mixed adhesive was dried, and then coated on the release film to 70 μm. Thereafter, the resultant was dried in an oven at 80° C. for 3 minutes, and then a support layer film was laminated thereon and compressed using a roller press. The resultant was cut by using a patch cutter, thereby manufacturing a patch having an area of 10 cm^2. Next, the physical properties of the patch and crystal formation were observed.
A crystallization inhibitor was placed and dissolved in a 70 mL vial, and then a solubilizing agent, an antioxidant, a percutaneous absorption enhancer and melatonin were added thereto and dissolved, after which an adhesive was added thereto, followed by mixing in a roll mixer for 2 hours. […]

[2] = melatonin administered orally; cited from earlier work

For `CN1CCCC1=O` [N-methyl pyrrolidone], the “Crystal formation (after 1 month) (microscopic observation)” value [1] was “fine crystal formation” and the “crystal formation in visual observation” value [1] was “no crystal formation”.

In the case of `CCOCCOCCO` [Transcutol CG, ethoxydiglycol], the “Crystal formation (after 1 month) (microscopic observation)” value [1] is reported as “fine crystal formation” and the “crystal formation in visual observation” value [1] is reported as “no crystal formation”.

For `COc1ccc2[nH]cc(CCNC(C)=O)c2c1` [melatonin], the bioavailability [2] is given as 20% and the half-life [2] is given as “about 1 hour”.

From US20240293336A1, “PERCUTANEOUS ABSORPTION FORMULATION FOR TREATING SLEEP DISORDERS” (SINSIN PHARM CO., LTD., priority 2016, published 2024)
